From patent publication US11299485B2, “Thiophene derivative and use thereof” (FUJIMOTO CO., LTD., priority 2018, dated 2022)

Columns and labels:
Type in all cases: cell-based
Pfeiffer cells = assay: Human diffuse large B-cell lymphoma cell line Pfeiffer proliferation suppression test; details: 144 h, compound 10 μM, 3 days + re-plating with compound 3 days, WST-8, read-out: cell survival rate (% of control) Pfeiffer
Source text: Example 52: Human Diffuse Large B-Cell Lymphoma Cell Line Pfeiffer Proliferation Suppression Test
Pfeiffer cells (ATCC, CRL-2632) were suspended in medium B, and diluted as appropriate with 0.4% trypan blue solution (Sigma-Aldrich Co. LLC.). The number of viable cells was counted with a hemocytometer (Funakoshi Co., Ltd.). A cell suspension obtained by diluting with medium B such that the value obtained was 1.3×10^5 cells/mL was dispensed into a Falcon 96 well flat bottom plate (Corning Incorporated) at 75 μL/well, and culture was started at 37° C. under 5% CO2 stream. The next day, a solution obtained by diluting 4 mM DMSO solution of the test compound 100-fold with medium B was added by 25 μL to each well (final concentration of test compound 10 μM). 25 μL of a solution obtained by diluting DMSO 100-fold with medium B was added to the control well. After culturing at 37° C. in a 5% CO2 stream for 3 days, the cell culture medium was uniformly suspended with a multi channel pipette, 14 μL per well was transferred into another new Falcon 96 well flat bottom plate. A solution obtained by diluting 4 mM DMSO solution of the same test compound as the first time 400-fold with medium B was added by 86 μL to a total amount of 100 μL (final concentration of test compound 10 μM). After culturing at 37° C. in a 5% CO2 stream for 3 days, the cell proliferation activity was measured according to the instruction manual attached to WST-8 Kit (KISHIDA CHEMICAL Co., Ltd.).

[1] = system: human peripheral blood mononuclear cells (PBMC); assay: Cytotoxicity test using human peripheral blood mononuclear cells (PBMC); details: compound 10 μg/mL, LPS, 24 hr, WST-1 or WST-8
Method: Example 56: Cytotoxicity Test Using Human Peripheral Blood Mononuclear Cells (PBMC)
Peripheral blood of a healthy adult was collected in a Venoject II vacuum blood collection tube (Terumo, containing EDTA/2Na), and then diluted two-fold with an equal volume of OTSUKA NORMAL SALINE (Otsuka Pharmaceutical Co., Ltd.). The diluted blood was mixed with Lymphoprep (AXIS-SHIELD) in half the volume of the diluted blood, dispensed into a 15 mL conical tube, and centrifuged at room temperature for 20 min (2,100 rpm). The mononuclear cells accumulated at the interface between Lymphoprep and plasma was transferred to a 50 mL conical tube, diluted with OTSUKA NORMAL SALINE, and the mononuclear cells suspension was centrifuged at room temperature for 10 min (1,150 rpm) and then the supernatant was removed. The mononuclear cells fraction obtained as a precipitate was suspended in an appropriate amount of medium A, and diluted as appropriate with 0.4% trypan blue solution (Sigma-Aldrich Co. LLC.). The number of viable cells was counted with a hemocytometer (ERMA INC.). It was diluted with medium A such that the value obtained was 5×10^5 cells/mL. On the other hand, 37.5 μL of medium A, 2.5 μL of 0.4 mg/mL test compound solution (DMSO solution 10-fold diluted with medium A), and 10 μL of 10 μg/mL lipopolysaccharide (Sigma-Aldrich Co. LLC.) solution (diluted with medium A) were each added in advance to the same well of a Falcon 96-well flat bottom plate (Corning Incorporated), and the above-mentioned cell suspension was dispensed at 50 μL/well (final concentration of test compound 10 μg/mL). 2.5 μL of DMSO diluted 10-fold with medium A was added to the control well instead of the compound solution. After culturing at 37° C. in a 5% CO2 stream for 24 hr, the cell survival rate was measured using WST-1 (DOJINDO LABORATORIES) or WST-8 kit (KISHIDA CHEMICAL Co., Ltd.) and according to each instruction manual attached thereto.

MM.1S cells = assay: Human myeloma cell line MM.1S proliferation suppression test; details: MM1.S, 72 h, compound 10 μM, 3 days, WST-1 or WST-8, read-out: cell survival rate (% of control) MM.1S
Method: Example 51: Human Myeloma Cell Line MM.1S Proliferation Suppression Test
MM.1S cells (ATCC, CRL-2974) were suspended in 10% fetal calf serum (Thermo Fisher Scientific)-containing RPMI1640 medium (ATCC, hereinafter abbreviated as medium B), and diluted as appropriate with 0.4% trypan blue solution (Sigma-Aldrich Co. LLC.). The number of viable cells was counted with a hemocytometer (ERMA INC.). It was diluted with medium B such that the value obtained was 2×10^5 cells/mL. On the other hand, 50 μL of a solution obtained by diluting 4 mM DMSO solution of the test compound 200-fold with medium B was added to each well of a Falcon 96-well flat bottom plate (Corning Incorporated), and the above-mentioned cell suspension was dispensed at 50 μL/well (final concentration of test compound 10 μM). 50 μL of a solution obtained by diluting DMSO 200-fold with medium B was added to the control well. After culturing at 37° C. in a 5% CO2 stream for 3 days, the cell proliferation activity was measured using WST-1 (DOJINDO LABORATORIES) or WST-8 Kit (KISHIDA CHEMICAL Co., Ltd.) and according to each instruction manual attached thereto.

| Compound | viability at 10 µM (Pfeiffer cells) | cell survival rate (% of control) PBMC [1] | viability at 10 µM (MM.1S cells) |
| --- | --- | --- | --- |
| O=C1CCC(n2cc(-c3cscc3Br)nn2)C(=O)N1 (stereo not drawn) [compound 1, 3-[4-(4-bromothiophen-3-yl)-1H-1,2,3-triazol-1-yl]piperidine-2,6-dione] | 89% | 106 % of control | 33% |
| O=C1CCC(n2cc(-c3ccsc3)nn2)C(=O)N1 (stereo not drawn) [compound 2, 3-[4-(thiophen-3-yl)-1H-1,2,3-triazol-1-yl]piperidine-2,6-dione] | 80% | 100 % of control | 50% |
| O=C1CCC(n2cc(-c3cccs3)nn2)C(=O)N1 (stereo not drawn) [compound 3, 3-[4-(thiophen-2-yl)-1H-1,2,3-triazol-1-yl]piperidine-2,6-dione] | 96% | 89 % of control | 59% |
| O=C1CCC(n2nnc(-c3ccsc3)c2Cl)C(=O)N1 (stereo not drawn) [compound 4, 3-[5-chloro-4-(thiophen-3-yl)-1H-1,2,3-triazol-1-yl]piperidine-2,6-dione] | 98% | 112 % of control | 87% |
| Cc1ccc(-c2cn(C3CCC(=O)NC3=O)nn2)s1 (stereo not drawn) [compound 5, 3-[4-(5-methylthiophen-2-yl)-1H-1,2,3-triazol-1-yl]piperidine-2,6-dione] | 98% | 97 % of control | 66% |
| Cc1cc(-c2cn(C3CCC(=O)NC3=O)nn2)cs1 (stereo not drawn) [compound 6, 3-[4-(5-methylthiophen-3-yl)-1H-1,2,3-triazol-1-yl]piperidine-2,6-dione] | 100% | 96 % of control | 63% |
| Cc1cscc1-c1cn(C2CCC(=O)NC2=O)nn1 (stereo not drawn) [compound 7, 3-[4-(4-methylthiophen-3-yl)-1H-1,2,3-triazol-1-yl]piperidine-2,6-dione] | 101% | 101 % of control | 57% |
| CC(=O)c1ccc(-c2cn(C3CCC(=O)NC3=O)nn2)s1 (stereo not drawn) [compound 8, 3-[4-(5-acetylthiophen-2-yl)-1H-1,2,3-triazol-1-yl]piperidine-2,6-dione] | 107% | 97 % of control | 94% |
| O=C1CCC(n2cc(-c3csc(CO)c3)nn2)C(=O)N1 (stereo not drawn) [compound 9, 3-{4-[5-(hydroxymethyl)thiophen-3-yl]-1H-1,2,3-triazol-1-yl}piperidine-2,6-dione] | 100% | 129 % of control | 77% |
| O=C1CCC(n2cc(-c3scc4c3OCCO4)nn2)C(=O)N1 (stereo not drawn) [compound 10, 3-[4-(2,3-dihydrothieno[3,4-b][1,4]dioxin-5-yl)-1H-1,2,3-triazol-1-yl]piperidine-2,6-dione] | 113% | 97 % of control | 78% |
| O=C1CCC(n2cc(-c3ccc(Cl)s3)nn2)C(=O)N1 (stereo not drawn) [compound 11, 3-[4-(5-chlorothiophen-2-yl)-1H-1,2,3-triazol-1-yl]piperidine-2,6-dione] | 114% | 115 % of control | 63% |
| O=C1CCC(n2cc(-c3ccc(Br)s3)nn2)C(=O)N1 (stereo not drawn) [compound 12, 3-[4-(5-bromothiophen-2-yl)-1H-1,2,3-triazol-1-yl]piperidine-2,6-dione] | 94% | 101 % of control | 74% |
| O=C1CCC(n2cc(-c3cc(Br)sc3Br)nn2)C(=O)N1 (stereo not drawn) [compound 13, 3-[4-(2,5-dibromothiophen-3-yl)-1H-1,2,3-triazol-1-yl]piperidine-2,6-dione] | 100% | 132 % of control | 79% |
| O=C1CCC(n2cc(-c3cscc3Cl)nn2)C(=O)N1 (stereo not drawn) [compound 14, 3-[4-(4-chlorothiophen-3-yl)-1H-1,2,3-triazol-1-yl]piperidine-2,6-dione] | 74% | 113 % of control | 43% |
| COc1c(-c2cn(C3CCC(=O)NC3=O)nn2)csc1C (stereo not drawn) [compound 15, 3-[4-(4-methoxy-5-methylthiophen-3-yl)-1H-1,2,3-triazol-1-yl]piperidine-2,6-dione] | 87% | 105 % of control | 55% |
| COC(=O)c1scc(-c2cn(C3CCC(=O)NC3=O)nn2)c1OC (stereo not drawn) [compound 16, methyl 4-[1-(2,6-dioxopiperidin-3-yl)-1H-1,2,3-triazol-4-yl]-3-methoxythiophene-2-carboxylate] | 98% | 90 % of control | 85% |
| CCOc1cscc1-c1cn(C2CCC(=O)NC2=O)nn1 (stereo not drawn) [compound 17, 3-[4-(4-ethoxythiophen-3-yl)-1H-1,2,3-triazol-1-yl]piperidine-2,6-dione] | 72% | 49 % of control | 32% |
| COc1sccc1-c1cn(C2CCC(=O)NC2=O)nn1 (stereo not drawn) [compound 18, 3-[4-(2-methoxythiophen-3-yl)-1H-1,2,3-triazol-1-yl]piperidine-2,6-dione] | 70% | 53 % of control | 27% |
| COc1cscc1-c1cn(C2CCC(=O)NC2=O)nn1 (stereo not drawn) [compound 19, 3-[4-(4-methoxythiophen-3-yl)-1H-1,2,3-triazol-1-yl]piperidine-2,6-dione] | 11% | 99 % of control | 24% |
| COc1cc(-c2cn(C3CCC(=O)NC3=O)nn2)cs1 (stereo not drawn) [compound 20, 3-[4-(5-methoxythiophen-3-yl)-1H-1,2,3-triazol-1-yl]piperidine-2,6-dione] | 81% | 104 % of control | 35% |
| CCCOc1cscc1-c1cn(C2CCC(=O)NC2=O)nn1 (stereo not drawn) [compound 21, 3-[4-(4-propoxythiophen-3-yl)-1H-1,2,3-triazol-1-yl]piperidine-2,6-dione] | 106% | 116 % of control | 75% |
| COc1c(-c2cn(C3CCC(=O)NC3=O)nn2)csc1Cl (stereo not drawn) [compound 22, 3-[4-(5-chloro-4-methoxythiophen-3-yl)-1H-1,2,3-triazol-1-yl]piperidine-2,6-dione] | 97% | 132 % of control | 73% |
